Laboratory results: publication PMC4184701 (Pharmacology Research & Perspectives, 2014)
“And” between values parts separate entries of the source, which are not always exact repeats. Equal values may be shown once. Read-outs that look alike come from different tables or passages of the source.

Tests used:
THP-1 cells [1] = experiment: Aβ1-42 oligomer-induced cytotoxicity, MTT assay, THP-1 cells; assay type: cell-based; details: Homo sapiens, read-out: IC50 Aβ1-42 oligomer toxicity THP-1 cells
SH-SY5Y cells [2] = experiment: Aβ1-42 oligomer binding to the cell surface (Congo red assay), SH-SY5Y cells; assay type: cell-based, human; details: compound 30 μmol/L, Aβ1-42 oligomers 5 μmol/L, 30 min cotreatment
Experimental: (§1) SH-SY5Y and THP-1 cells were seeded in 96-well plates at 5 × 10^3 cells/well and 5 × 10^4 cells/well, respectively, for 24 h. At the end of incubation, the medium was changed with a fresh one with Aβ1-42 oligomer (5 μmol/L) and various compounds at 30 μmol/L for 30 min and then washed twice with PBS. The residual Aβ1-42 oligomer cell complex was stained with 1 μmol/L of Congo red (CR) in PBS for 20 min and measured with a spectrophotometer (TECAN®, GENios) at 540 nm (bound CR). CR values are reported as percent increases in treated cells versus untreated cells.

THP-1 cells [3] = experiment: Aβ1-42 oligomer-induced NO and TNFα release; assay type: cell-based, human; details: 30 μmol/L
Experimental: THP-1 cells were seeded in 96-well plates at 5 × 10^4 cells/well for 24 h. At the end of incubation, the medium was changed with a fresh one with AP2469 30 μmol/L for 3 h. The cells were then washed with PBS and incubated for a further 12 h with Aβ1-42 oligomer (5 μmol/L). The content of each well was then removed and centrifuged at 2500g for 10 min, and the supernatant was frozen at −20°C for the subsequent analysis of released NO and tumor necrosis factor alpha (TNFα). To determine the NO levels, 100 μL of supernatant was incubated with 100 μL of Griess reagent (Sigma Aldrich) in the dark at room temperature for 15 min. The intensity of the color that developed was then measured at 540 nm using a spectrophotometer (TECAN®, GENios). Values are reported as percent increases in treated cells versus untreated cells. The TNFα levels in 100 μL of supernatant were determined by Ray Bio® ELISA kit according to the manufacturer's instructions (Ray Biotech, Inc., GA). The concentration of TNFα levels was calculated from a TNFα standard curve standard of 25–6000 pg/mL and the values are reported as percent increases in treated cells versus untreated cells.

SH-SY5Y cells [4] = experiment: t-BuOOH-induced intracellular ROS formation (DCFH-DA, DHE); assay type: cell-based, human; details: 3–30 μmol/L, 3 h pretreatment, t-BuOOH 50 μmol/L
Experimental: As above, the intracellular hydrogen peroxide and superoxide anion formation induced by tert-butyl hydroperoxide (t-BuOOH) at SH-SY5Y cell level was determined using, respectively, the probes DCFH-DA and DHE. Briefly, SH-SY5Y cells were cultured in 96-well microtiter plates at 3 × 10^4 cells/well for 24 h. The medium was then removed and the cells were treated for 3 h with various concentrations of compounds (3–30 μmol/L) at 37°C. After treatment, the cells were washed with PBS and then incubated with DCFH-DA (5 μmol/L) or DHE (10 μmol/L) in PBS at 37°C in 5% CO2 for 30 min. After removal of the probes and further washing, the cells were incubated with t-BuOOH (50 μmol/L) in PBS for 30 min. At the end of incubation, the green or red fluorescence of the cells from each well was measured with a spectrofluorometer (TECAN®, GENios). The results are expressed as fold increases in intracellular ROS evoked by exposure to t-BuOOH.

SH-SY5Y cells [5] = experiment: Aβ1-42 oligomer-induced cytotoxicity, MTT assay, SH-SY5Y cells; assay type: cell-based; details: Homo sapiens; for IC50: 3 h, read-out: IC50 Aβ1-42 oligomer toxicity SH-SY5Y cells; for inhibition at 30 µM: read-out: toxicity inhibition
THP-1 cells [6] = experiment: Aβ-induced toxicity (Aβ1-42 oligomers, Aβ25-35), MTT assay, THP-1 cells; assay type: cell-based, human; details: 1–30 μmol/L, Aβ 5 μmol/L, 3 h
THP-1 cells [7] = experiment: Aβ1-42 oligomer binding to the cell surface (Congo red assay), THP-1 cells; assay type: cell-based, human; details: compound 30 μmol/L, Aβ1-42 oligomers 5 μmol/L, 30 min cotreatment
Experimental: as §1

Aβ1-42 = target: T1, Aβ1-42 (Homo sapiens, UniProt P05067); experiment: biochemical; details: ± SEM; 50 μmol/L Aβ, 30°C, 24 h, ThT; highest tested concentration 50 μmol/L; read-out: IC50 Aβ1-42 self-aggregation
T1 construct: 1,1,1,3,3,3-hexafluoro-2-propanol pretreated Aβ1-42 samples (Bachem AG, Switzerland); purchased Bachem AG, Switzerland

human recombinant AChE = human recombinant AChE (Homo sapiens, UniProt P22303); experiment: biochemical; details: ± SEM; 20 min preincubation at 37°C, pH 8.0; read-out: IC50 hAChE
BACE1 [8] = target: T2, BACE1 (Homo sapiens, UniProt P56817); experiment: Inhibition of BACE1 (FRET assay); assay type: biochemical; details: ± SEM, Panvera peptide substrate, pH 4.5
SH-SY5Y cells [9] = experiment: Aβ25-35 peptide-induced cytotoxicity, MTT assay, SH-SY5Y cells; details: 1–30 μmol/L, Aβ25-35 5 μmol/L, 3 h
SH-SY5Y cells [10] = experiment: Total antioxidant activity in membrane and cytosolic fractions (ABTS decolorization); assay type: cell-based, human; details: SH-SY5Y treated 2 h, vs untreated cells
[11] = target: T3, BuChE derived from human serum (Homo sapiens, UniProt P06276); experiment: biochemical; assay type: biochemical; details: ± SEM; 20 min preincubation at 37°C, pH 8.0; read-out: IC50 hBuChE
T3 construct: BuChE derived from human serum (Sigma Chemical, Milan, Italy); purchased Sigma Chemical, Milan, Italy; host or cells: human serum

SH-SY5Y cells [12] = experiment: Aβ1-42 oligomer-induced intracellular ROS formation (DCFH-DA, DHE); assay type: cell-based, human; details: 3–30 μmol/L, 3 h pretreatment, Aβ1-42 oligomers 5 μmol/L
Experimental: The intracellular hydrogen peroxide and superoxide anion formation induced by Aβ1-42 oligomer at SH-SY5Y cell level was determined using, respectively, the probe 2′,7′-dichlorodihydrofluorescein diacetate (DCFH-DA, λexc = 485 nm, λem = 535 nm), and dihydroethidium (DHE, λexc = 380 nm, λem = 445 nm). SH-SY5Y cells were cultured in BD Falcon™ 8-well Culture slides (surface area 0.7 cm^2/well) at 1 × 10^4 cells/well for 24 h. The cells were then treated for 3 h with various concentrations of compounds (3–30 μmol/L) at 37°C prior to the treatment of 3 h with Aβ1-42 oligomer (5 μmol/L). At the end of treatment, the cells were washed and incubated with DCFH-DA (5 μmol/L) or DHE (10 μmol/L) for 30 min in the dark. After removal of the probes, cells were washed with PBS and incubated with DMEM serum free for 1 h at 37°C. Intracellular ROS formation was measured under a fluorescence microscope (Zeiss Axio Imager M1). Fluorescence images were captured with an AxioVision image recording system computer. Four randomly selected areas with 50–100 cells in each were analyzed and the values obtained are expressed as fold increases in hydrogen peroxide and superoxide anion versus untreated cells.

BACE1 [13] = target: T2, BACE1; details: cited from earlier work
[14] = system: hAChE-induced amyloid aggregation; design: method as in Piazzi et al. [2003], [2007]; details: at 100 μmol/L concentration; ref Piazzi et al. [2003], [2007]; cited from earlier work
[15] = THP-1, ± SEM, 5 μmol/L Aβ1-42 oligomers, 3 h, MTT, highest tested concentration 30 μmol/L
[16] = SH-SY5Y, ± SEM, 5 μmol/L Aβ1-42 oligomers, MTT, highest tested concentration 30 μmol/L

T1 sequence (P05067 672-713 limits assumed): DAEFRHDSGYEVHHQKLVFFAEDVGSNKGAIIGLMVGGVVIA
T2 sequence (P56817 46-501): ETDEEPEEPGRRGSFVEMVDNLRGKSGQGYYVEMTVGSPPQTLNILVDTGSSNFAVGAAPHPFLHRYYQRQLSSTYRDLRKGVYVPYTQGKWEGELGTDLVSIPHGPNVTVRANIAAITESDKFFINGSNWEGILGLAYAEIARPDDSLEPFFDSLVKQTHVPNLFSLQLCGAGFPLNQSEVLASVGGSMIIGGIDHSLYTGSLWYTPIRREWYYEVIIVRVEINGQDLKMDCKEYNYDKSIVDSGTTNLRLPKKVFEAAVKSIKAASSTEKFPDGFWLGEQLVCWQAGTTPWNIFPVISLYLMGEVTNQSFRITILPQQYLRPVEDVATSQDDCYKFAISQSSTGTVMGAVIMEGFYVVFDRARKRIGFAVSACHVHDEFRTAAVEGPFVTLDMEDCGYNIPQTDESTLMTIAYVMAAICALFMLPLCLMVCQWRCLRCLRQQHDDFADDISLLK
T3 sequence (P06276 29-602): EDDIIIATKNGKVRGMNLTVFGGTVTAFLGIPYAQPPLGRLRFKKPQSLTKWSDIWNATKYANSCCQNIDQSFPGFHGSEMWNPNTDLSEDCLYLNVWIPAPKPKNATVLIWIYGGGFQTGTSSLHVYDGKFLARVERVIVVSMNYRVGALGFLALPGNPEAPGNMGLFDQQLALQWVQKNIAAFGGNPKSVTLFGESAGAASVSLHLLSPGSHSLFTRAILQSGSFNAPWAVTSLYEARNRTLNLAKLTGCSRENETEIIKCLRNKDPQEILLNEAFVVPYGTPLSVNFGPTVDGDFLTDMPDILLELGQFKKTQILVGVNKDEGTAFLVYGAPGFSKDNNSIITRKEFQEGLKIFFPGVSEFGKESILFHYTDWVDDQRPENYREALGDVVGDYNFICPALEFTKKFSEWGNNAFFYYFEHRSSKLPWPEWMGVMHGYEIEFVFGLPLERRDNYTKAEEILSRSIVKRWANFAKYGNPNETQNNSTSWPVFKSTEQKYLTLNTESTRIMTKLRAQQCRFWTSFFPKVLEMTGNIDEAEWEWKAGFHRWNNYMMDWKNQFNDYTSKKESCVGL
Chain of human recombinant AChE (P22303 32-614): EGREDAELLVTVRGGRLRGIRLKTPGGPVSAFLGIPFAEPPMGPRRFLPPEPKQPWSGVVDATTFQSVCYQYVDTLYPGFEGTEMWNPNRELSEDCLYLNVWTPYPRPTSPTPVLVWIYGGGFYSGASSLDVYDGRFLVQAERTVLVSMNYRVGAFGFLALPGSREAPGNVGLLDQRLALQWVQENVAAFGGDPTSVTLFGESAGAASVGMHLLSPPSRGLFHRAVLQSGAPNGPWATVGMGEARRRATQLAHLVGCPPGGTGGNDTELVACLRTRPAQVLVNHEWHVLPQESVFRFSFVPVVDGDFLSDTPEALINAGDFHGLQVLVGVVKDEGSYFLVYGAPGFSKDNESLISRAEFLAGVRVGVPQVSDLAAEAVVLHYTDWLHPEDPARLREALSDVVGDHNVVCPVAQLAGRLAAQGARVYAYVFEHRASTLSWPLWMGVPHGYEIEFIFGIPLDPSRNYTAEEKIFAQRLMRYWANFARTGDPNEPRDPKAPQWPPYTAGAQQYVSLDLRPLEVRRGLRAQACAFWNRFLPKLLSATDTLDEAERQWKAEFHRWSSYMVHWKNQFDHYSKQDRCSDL

| SMILES | IC50 (THP-1 cells [1]; [15]) [µM] | binding of Aβ1-42 oligomers with SH-SY5Y cells (CR assay) (SH-SY5Y cells [2]) | IC50 (SH-SY5Y cells [5]; [16]) [µM] | binding of Aβ1-42 oligomers with THP-1 cells (CR assay) (THP-1 cells [7]) | IC50 (Aβ1-42) [µM] | IC50 (BACE1 [8]) | cytotoxicity elicited by Aβ25-35 peptide in SH-SY5Y cells (SH-SY5Y cells [9]) | IC50 [11] [µM] | inhibition of hAChE-induced amyloid aggregation [14] [%] | other results |
| --- | --- | --- | --- | --- | --- | --- | --- | --- | --- | --- |
| CCN(Cc1ccccc1)Cc1ccc(-c2cc3cc(O)c(O)cc3oc2=O)cc1 [AP2469, 3-{4-[(Benzylethylamino)-methyl]phenyl}-6,7-dihydroxychromen-2-one] | 8.18 ± 0.51 | significantly reduced | 7.5 ± 0.72 | significantly reduced | 21.7 ± 3.4 | 6.5 µM and 6.49 µM | dose-dependent decrease | 124 ± 13 | – | Aβ1-42 oligomer-induced TNFα release (THP-1 cells [3]; ELISA): inhibited; Aβ1-42 oligomer-induced NO release (THP-1 cells [3]; Griess reagent): reduced; ROS formation induced by t-BuOOH (SH-SY5Y cells [4]): significantly reduced; inhibition at 30 µM (SH-SY5Y cells [5]; at 30 μmol/L, Aβ1-42 oligomers 5 μmol/L, SH-SY5Y cells): 93%; Aβ-induced toxicity in THP-1 cells (THP-1 cells [6]): significant inhibitor effects; IC50 (human recombinant AChE): 8.6 ± 0.21 µM; total antioxidant activity (TAA), membrane fraction (SH-SY5Y cells [10]; 3–30 μmol/L): significant only at the highest tested concentration; total antioxidant activity (TAA), cytosolic fraction (SH-SY5Y cells [10]; all tested concentrations (3–30 μmol/L)): significant TAA increase; Aβ1-42 oligomer-induced hydrogen peroxide and superoxide anion formation (SH-SY5Y cells [12]): significantly inhibited |
| COc1ccc2c3c1O[C@H]1C[C@@H](O)C=C[C@@]31CCN(C)C2 [Galantamine, reference compound] | – | – | – | – | > 50 | – | dose-dependent decrease | – | – | IC50 (THP-1 cells [1]; THP-1, 3 h): > 30 µM; IC50 (SH-SY5Y cells [5]; SH-SY5Y): 7.99 ± 0.91 µM; inhibition at 30 µM (SH-SY5Y cells [5]; SH-SY5Y): 58%; IC50 (BACE1 [13]; not active at the highest tested concentration (5 μmol/L), ref Mancini et al. [2007], read-out: IC50 BACE1): > 5 µM |
| CCN(Cc1ccccc1)Cc1ccc(-c2cc3cc(OC)c(OC)cc3oc2=O)cc1 [AP2243] | > 30 | did not modify | > 30 | did not modify | > 50 | 0.24 ± 0.03 µM | – | 118 ± 16 | 38 | – |
| c1ccc2c(NCCCCCCCNc3c4c(nc5ccccc35)CCCC4)c3c(nc2c1)CCCC3 [bis(7)-tacrine] | – | – | – | – | – | – | – | – | – | IC50 (BACE1 [13]; noncompetitive BACE1 inhibitor, ref Fu et al. [2008], read-out: BACE1 inhibitory activity): 7.5 µM |
| COc1cc2cc(-c3ccc(CN(C)Cc4ccccc4)cc3)c(=O)oc2cc1OC [AP2238, 3-(4-{[Benzyl(methyl)amino]methyl}-phenyl)-6,7-dimethoxy-2H-2-chromenone] | – | – | – | – | > 50 | – | – | – | 35 | – |
